Measured values reported in US7550603B2, “1H-benzimidazole-4-carboxamides substituted with a quaternary carbon at the 2-position are potent PARP inhibitors” (Abbott Laboratories Inc., priority 2005, dated 2009).
Read-outs that look alike come from different tables or passages of the source. Marks after values point to notes of the source that are not given here.

Columns and labels:
[1] = target: Recombinant Human Poly(ADP-Ribose) Polymerase (PARP) (Homo sapiens, UniProt P09874); assay: Inhibition of PARP (PARP1 assay, [3H]-NAD+ / biotinylated histone H1, FlashPlate); conditions: read-out: PARP Inhibition Ki; Table 1; quaternary and non-quaternary compounds
Protocol: Nicotinamide[2,5′,8-3H]adenine dinucleotide and strepavidin SPA beads were purchased from Amersham Biosiences (UK) Recombinant Human Poly(ADP-Ribose) Polymerase (PARP) purified from E. coli and 6-Biotin-17-NAD^+, were purchase from Trevigen, Gaithersburg, Md. NAD^+, Histone, aminobenzamide, 3-amino benzamide and Calf Thymus DNA (dcDNA) were purchased from Sigma, St. Louis, Mo. Stem loop oligonucleotide containing MCAT sequence was obtained from Qiagen. The oligos were dissolved to 1 mM in annealing buffer containing 10 mM Tris HCl pH 7.5, 1 mM EDTA, and 50 mM NaCl, incubated for 5 min at 95° C., and followed by annealing at 45° C. for 45 minutes. […] Biotinylated histone H1 was prepared by treating the protein with Sulfo-NHS-LC-Biotin from Pierce Rockford, Ill. The biotinylation reaction was conducted by slowly and intermittently adding 3 equivalents of 10 mM Sulfo-NHS-LC-Biotin to 100 μM Histone H1 in phosphate-buffered saline, pH 7.5, at 4° C. with gentle vortexing over 1 min followed by subsequent 4° C. incubation for 1 hr. Streptavidin coated (FlashPlate Plus) microplates were purchased from Perkin Elmer, Boston, Mass.
PARP1 assay was conducted in PARP assay buffer containing 50 mM Tris pH 8.0, 1 mM DTT, 4 mM MgCl2. […] Auto reactions utilizing SPA bead-based detection were carried out in 100 μl volumes in white 96 well plates.

Female BALB/c mice = assay: Deaths following lipopolysaccharide (LPS) challenge; format: in vivo; conditions: 20 mg/kg LPS intravenous, monitored 72 hours
Protocol: Female BALB/c mice were dosed orally, twice a day with vehicle (0.2% HPMC), or drug at 30 mg/kg/day or 100 mg/kg/day. The mice were injected intravenous with 20 mg/kg LPS at 30 minutes after the first treatment dose. They were monitored for survival for 72 hours or until 80-90% lethality was observed.

[2] = tested on: peritoneum following zymosan challenge; conditions: peritoneal lavage four hours post zymosan (2 mg/animal)
Protocol: Compounds were administered orally before an intraperitoneal zymosan injection (2 mg/animal).

[3] = 30 mg/kg/day orally twice a day
[4] = 100 mg/kg/day orally twice a day

Recombinant Human Poly(ADP-Ribose) Polymerase (PARP), sequence (P09874 whole entry): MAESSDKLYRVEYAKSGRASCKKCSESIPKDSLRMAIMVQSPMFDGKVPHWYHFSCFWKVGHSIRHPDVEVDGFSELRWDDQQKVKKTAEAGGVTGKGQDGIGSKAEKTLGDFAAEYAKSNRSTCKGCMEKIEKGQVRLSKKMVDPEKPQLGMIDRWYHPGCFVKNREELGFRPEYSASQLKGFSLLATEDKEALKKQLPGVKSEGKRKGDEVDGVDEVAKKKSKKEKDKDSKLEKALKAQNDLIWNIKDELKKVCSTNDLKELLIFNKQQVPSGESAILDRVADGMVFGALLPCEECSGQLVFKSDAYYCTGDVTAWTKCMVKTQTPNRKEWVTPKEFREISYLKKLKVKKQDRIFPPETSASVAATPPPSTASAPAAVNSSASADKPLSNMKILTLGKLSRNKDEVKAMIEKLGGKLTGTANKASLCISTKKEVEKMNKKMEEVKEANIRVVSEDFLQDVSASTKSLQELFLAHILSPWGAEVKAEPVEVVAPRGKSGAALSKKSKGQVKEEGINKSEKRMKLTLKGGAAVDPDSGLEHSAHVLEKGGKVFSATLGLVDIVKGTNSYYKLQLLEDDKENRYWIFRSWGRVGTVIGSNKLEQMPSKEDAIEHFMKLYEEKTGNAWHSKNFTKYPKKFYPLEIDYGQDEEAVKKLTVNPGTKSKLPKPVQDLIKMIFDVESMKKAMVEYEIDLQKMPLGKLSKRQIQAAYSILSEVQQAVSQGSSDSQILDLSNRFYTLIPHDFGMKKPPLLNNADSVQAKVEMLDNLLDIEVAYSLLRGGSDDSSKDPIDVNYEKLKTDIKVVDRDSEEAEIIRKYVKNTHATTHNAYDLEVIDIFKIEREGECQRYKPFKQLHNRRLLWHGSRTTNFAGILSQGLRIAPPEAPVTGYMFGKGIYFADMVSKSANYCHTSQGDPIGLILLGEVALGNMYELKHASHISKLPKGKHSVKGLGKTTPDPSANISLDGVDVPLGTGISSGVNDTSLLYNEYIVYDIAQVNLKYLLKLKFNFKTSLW

Row | Structure (SMILES) | Ki [1] | Deaths following LPS challenge (lethality) (Female BALB/c mice; [3]) | Deaths following LPS challenge (lethality) (Female BALB/c mice; [4]) | Percent decrease in Cell Influx relative to control ([2]; 30 mg/kg orally) | Percent decrease in IL-1 level relative to control ([2]; 30 mg/kg orally) | Percent decrease in Cell Influx relative to control ([2]; 100 mg/kg orally) | Percent decrease in IL-1 level relative to control ([2]; 100 mg/kg orally)
1 | NC(=O)c1cccc2[nH]c(C3CCN3)nc12 (stereo not shown) [2-azetidin-2-yl-1H-benzimidazole-4-carboxamide] | 34 nM | – | – | – | – | – | –
2 | CCCN1CCC(c2nc3c(C(N)=O)cccc3[nH]2)CC1 [2-(1-propylpiperidin-4-yl)-1H-benzimidazole-4-carboxamide] | – | 8/10 | 9/10 | 0% | 32% | 23% | 47%*
3 | NC(=O)c1cccc2[nH]c(C3CCN(CCc4ccccc4)C3)nc12 (stereo not shown) [2-[1-(2-phenylethyl)pyrrolidin-3-yl]-1H-benzimidazole-4-carboxamide] | 9.1 nM | – | – | – | – | – | –
4 | C[C@@]1(c2nc3c(C(N)=O)cccc3[nH]2)CCCN1 [Example 4, 2-[(2S)-2-methylpyrrolidin-2-yl]-1H-benzimidazole-4-carboxamide] | – | 8/10 | 4/10* | – | – | – | –
